Data as given in patent US20020151551A1, “Use of growth hormone secretagogues in conjunction with physical exercise cross reference to related application” (priority 2000, published 2002).

Columns and labels:
[1] = test system: exercise-induced growth hormone secretion; assay: Phase I double-blind, placebo-controlled, multiple dose evaluation: effect on exercise-induced growth hormone secretion (exercise bicycle); format: in vivo, human; settings: for growth hormone AUC, End of Treatment, Mean: Day 7, calorically restricted obese subjects; for growth hormone AUC, End of Treatment, Mean / growth hormone AUC, Change, Mean: AUC up to 150 minutes post exercise; for growth hormone AUC, Change, Mean: Day 7 versus screening visit
Experimental: Phase I Double-Blind, Placebo-Controlled, Multiple Dose Evaluation of Test Compound in Calorically Restricted, Obese Men and Women
A total of 48 obese subjects, without significant other medical problems and a negative exercise tolerance test, were recruited for this study and placed on a caloric-restricted diet. Subjects had been randomized to either placebo, 3 mg po tid, 6 mg po tid or 10 mg po qam of the test compound, 2-amino-N-[2-(3a-(R)-benzyl-2-methyl-3-oxo-2,3,3a,4,6,7-hexahydro-pyrazolo[4,3-c]pyridin-5-yl)-1-(R)-benzyloxymethyl-2-oxo-ethyl]-isobutyramide, L-tartrate for a total of seven days.
One of the objectives of this study was to examine the effect of the test compound on exercise-induced growth hormone secretion. The testing was conducted on an exercise bicycle.
One of the efficacy measures of this study was the area under the growth hormone secretory response curve over time (AUC). The above table summarizes the growth hormone AUC values at the screening visit (“Before Treatment”) and at Day 7 (“End of Treatment”) for subjects, who completed exercise at both visits. Also, the AUC values for these subjects were calculated for up to 150 minutes post exercise. The “p-value” in the above table, which is associated with each active treatment group, is derived from comparing each active treatment group with the placebo group, using the two-sample Wilcoxon test.

[2] = test system: diet-induced catabolism; settings: orally active; cited from earlier work
[3] = test system: serum insulin-like growth factor-1; quadriceps muscle; settings: canines during remobilization; cited from earlier work

CN1N=C2CCN(C(=O)[C@@H](COCc3ccccc3)NC(=O)C(C)(C)N)C[C@@]2(Cc2ccccc2)C1=O.O=C(O)C(O)C(O)C(=O)O [test compound, 2-amino-N-[2-(3a-(R)-benzyl-2-methyl-3-oxo-2,3,3a,4,6,7-hexahydro-pyrazolo[4,3-c]pyridin-5-yl)-1-(R)-benzyloxymethyl-2-oxo-ethyl]-isobutyramide, L-tartrate]
growth hormone AUC, End of Treatment, Mean ([1]; 3 mg p.o. tid for seven days): 384 | growth hormone AUC, Change, Mean ([1]; 3 mg p.o. tid for seven days): 298 | growth hormone AUC, End of Treatment, Mean ([1]; 6 mg p.o. tid for seven days): 395 | growth hormone AUC, Change, Mean ([1]; 6 mg p.o. tid for seven days): 250 | growth hormone AUC, End of Treatment, Mean ([1]; 10 mg p.o. qam for seven days): 927 | growth hormone AUC, Change, Mean ([1]; 10 mg p.o. qam for seven days): 684 | effect on exercise-induced growth hormone secretion ([1]; overall finding of the study, versus placebo): augmented exercise-induced growth hormone secretion

CC(C)(N)C(=O)N[C@H](COCc1ccccc1)C(=O)N1CCC2(CC1)CN(S(C)(=O)=O)c1ccccc12 [MK-677]
diet-induced catabolism [2]: reverses diet-induced catabolism | serum insulin-like growth factor-1 levels [3]: elevated levels of serum insulin-like growth factor-1 | size and strength of the quadriceps muscle [3]: increased the size and strength of the quadriceps muscle
